# Test results from ChEMBL document CHEMBL5131401, “Structural Basis for Developing Multitarget Compounds Acting on Cysteinyl Leukotriene Receptor 1 and G-Protein-Coupled Bile Acid Receptor 1” (J Med Chem, 2021).
# Experiments:
# [1] = Lipophilicity, logD of the compound in octanol and phosphate buffer at pH 7.4 incubated for 2 hrs under shaking condition by LC-MS/MS analysis; type: physicochemical
# [2] = Metabolic stability in human liver S9 fraction assessed as half life at 1 uM measured after 2 hrs in presence of NADPH by LC-MS/MS analysis; type: ADME, subcellular
# [3] = Aqueous solubility of compound in pH 7.4 PBS buffer measured after 24 hrs by LC-MS/MS analysis; type: physicochemical
# [4] = Metabolic stability in human liver microsomes assessed as half life at 1 uM measured up to 60 mins in presence of NADPH by LC-MS/MS analysis; type: ADME, Microsome; details: for half-life at 1 µM: liver microsomes
logD at 2 h [1],half-life at 1 µM [2],solubility at 24 h [3],"t1/2 ([4]; microsomes, 1 h, 1 µM)",half-life at 1 µM [4],Compound
3.1,57 min,39.3 µM,37 h,–,CCCCCC(O)c1cccc(OCc2ccc3ccccc3n2)c1 (stereo not drawn) [REV-5901]
2.8,119 min,141 µM,–,48 min,OCc1cccc(OCc2ccc3ccccc3n2)c1
1.01,–,3.5 µM,–,22.3 min,CCC(C)COc1cccc(OCc2ccc3ccccc3n2)c1 (stereo not drawn)
0.12,–,> 200 µM,–,–,O=C(O)c1cccc(OCc2ccc3ccccc3n2)c1
